Consider one compound from US9421298B2, “Tissue adhesive based on nitrogen-modified aspartates” (Adhesys Medical GmbH, priority 2011, dated 2016).

The data set deals with L929 cells. The experiment in a line: Cytotoxicity in accordance with ISO 10993-5:2009 with L929 cells. It counts as cell-based. The note with it: prepolymer A cured with an equivalent amount of curing agent. The procedure:
The prepolymer A was cured with an equivalent amount of 2. The cytotoxicity was measured in accordance with ISO 10993-5:2009 with L929 cells. […] The system can therefore not be classed as being cytotoxic.

Molecules are shown by their SMILES.

With `CCOC(=O)CC(NCCCCCCNCCCCCCNC(CC(=O)OCC)C(=O)OCC)C(=O)OCC` (stereo not shown) [Curing agent 2, triethyl 4-oxo-3-oxa-7,14,21-triazatricosane-6,22,23-tricarboxylate], the “Cytotoxicity (cell viability)” value was “No reduction in cell viability”.
